From ChEMBL document CHEMBL5532655, “Discovery of (R)-4-(8-methoxy-2-methyl-1-(1-phenylethy)-1H-imidazo[4,5-c]quinnolin-7-yl)-3,5-dimethylisoxazole as a potent and selective BET inhibitor for treatment of acute myeloid leukemia (AML) guided by FEP calculation” (Eur J Med Chem, 2024) come the findings set out here.

Assay [1] has as its system MV4-11. Put plainly: Induction of cell cycle arrest in human MV4-11 cells assessed as accumulation of cells at G2/M phase at 0.625 uM incubated for 24 hrs by propidium iodide staining flow cytometric analysis (reference value: 51.43 %). The assay is classed as functional.
For assay [2], the system named is MV4-11. Put plainly: Induction of apoptosis in human MV4-11 cells assessed as late apoptotic cells at 10 uM incubated for 24 hrs by annexin V-FITC/PI staining based flow cytometric analysis (reference value: 0.04 %). In kind it is functional. (In flow cytometry, cells or beads pass a laser one at a time.)
Assay [3] concerns MV4-11. Put plainly: Induction of apoptosis in human MV4-11 cells assessed as late apoptotic cells at 0.625 uM incubated for 24 hrs by annexin V-FITC/PI staining based flow cytometric analysis (reference value: 0.04 %). In kind it is functional.
The subject of assay [4] is MV4-11. Put plainly: Induction of cell cycle arrest in human MV4-11 cells assessed as accumulation of cells at S phase at 1.25 uM incubated for 24 hrs by propidium iodide staining flow cytometric analysis (reference value: 13.08 %). In kind it is functional.
Assay [5] concerns MV4-11. As to the kind of experiment: Induction of apoptosis in human MV4-11 cells assessed as viable cells at 0.625 uM incubated for 24 hrs by annexin V-FITC/PI staining based flow cytometric analysis (reference value: 97%). In kind it is functional.
In assay [6] the test system is MV4-11. As to the kind of experiment: Induction of apoptosis in human MV4-11 cells assessed as late apoptotic cells at 5 uM incubated for 24 hrs by annexin V-FITC/PI staining based flow cytometric analysis (reference value: 0.04 %). In kind it is functional.
The subject of assay [7] is MV4-11. As to the kind of experiment: Induction of cell cycle arrest in human MV4-11 cells assessed as accumulation of cells at S phase at 2.5 uM incubated for 24 hrs by propidium iodide staining flow cytometric analysis (reference value: 13.08 %). In kind it is functional.
For assay [8], the system named is MV4-11. Put plainly: Induction of cell cycle arrest in human MV4-11 cells assessed as accumulation of cells at G0/G1 phase at 2.5 uM incubated for 24 hrs by propidium iodide staining flow cytometric analysis (reference value: 34.97 %). In kind it is functional.
For assay [9], the system named is MV4-11. As to the kind of experiment: Induction of apoptosis in human MV4-11 cells assessed as early apoptotic cells at 10 uM incubated for 24 hrs by annexin V-FITC/PI staining based flow cytometric analysis (reference value: 0%). The assay is classed as functional.
Assay [10] relates to MV4-11. Put plainly: Induction of apoptosis in human MV4-11 cells assessed as viable cells at 5 uM incubated for 24 hrs by annexin V-FITC/PI staining based flow cytometric analysis (reference value: 97%). In kind it is functional.
The test system of assay [11] is MV4-11. Put plainly: Induction of apoptosis in human MV4-11 cells assessed as necrotic cells at 10 uM incubated for 24 hrs by annexin V-FITC/PI staining based flow cytometric analysis (reference value: 2.35 %). In kind it is functional.
Assay [12] relates to MV4-11. As to the kind of experiment: Induction of apoptosis in human MV4-11 cells assessed as early apoptotic cells at 1.25 uM incubated for 24 hrs by annexin V-FITC/PI staining based flow cytometric analysis (reference value: 0%). In kind it is functional.
Assay [13] concerns MV4-11. Put plainly: Induction of apoptosis in human MV4-11 cells assessed as necrotic cells at 1.25 uM incubated for 24 hrs by annexin V-FITC/PI staining based flow cytometric analysis (reference value: 2.35 %). In kind it is functional.
Assay [14] concerns MV4-11. As to the kind of experiment: Induction of apoptosis in human MV4-11 cells assessed as necrotic cells at 0.625 uM incubated for 24 hrs by annexin V-FITC/PI staining based flow cytometric analysis (reference value: 2.35 %). The assay is classed as functional.
For assay [15], the species on record is Homo sapiens. The conditions noted are these: time 30.0 min.
The subject of a further assay is MM1.S. Put plainly: cells. The conditions noted are these: Homo sapiens, 48 h.
For assay [16], the system named is MV4-11. Put plainly: Induction of apoptosis in human MV4-11 cells assessed as early apoptotic cells at 0.625 uM incubated for 24 hrs by annexin V-FITC/PI staining based flow cytometric analysis (reference value: 0%). In kind it is functional.
The subject of assay [17] is MV4-11. As to the kind of experiment: Induction of apoptosis in human MV4-11 cells assessed as viable cells at 1.25 uM incubated for 24 hrs by annexin V-FITC/PI staining based flow cytometric analysis (reference value: 97%). The assay is classed as functional.
Assay [18] deals with MV4-11. As to the kind of experiment: Induction of apoptosis in human MV4-11 cells assessed as late apoptotic cells at 1.25 uM incubated for 24 hrs by annexin V-FITC/PI staining based flow cytometric analysis (reference value: 0.04 %). The assay is classed as functional.
Assay [19] has as its system MV4-11. Put plainly: Induction of cell cycle arrest in human MV4-11 cells assessed as accumulation of cells at S phase at 0.625 uM incubated for 24 hrs by propidium iodide staining flow cytometric analysis (reference value: 13.08 %). In kind it is functional.
Assay [20] has as its system MV4-11. Put plainly: Induction of apoptosis in human MV4-11 cells assessed as necrotic cells at 2.5 uM incubated for 24 hrs by annexin V-FITC/PI staining based flow cytometric analysis (reference value: 2.35 %). In kind it is functional.
For assay [21], the system named is MV4-11. As to the kind of experiment: Induction of cell cycle arrest in human MV4-11 cells assessed as accumulation of cells at S phase at 5 uM incubated for 24 hrs by propidium iodide staining flow cytometric analysis (reference value: 13.08 %). The assay is classed as functional.
For assay [22], the system named is MV4-11. As to the kind of experiment: Induction of cell cycle arrest in human MV4-11 cells assessed as accumulation of cells at G0/G1 phase at 5 uM incubated for 24 hrs by propidium iodide staining flow cytometric analysis (reference value: 34.97 %). In kind it is functional.
For assay [23], the system named is MV4-11. As to the kind of experiment: cells. The conditions noted are these: Homo sapiens, MV4-11, 48 h.
Description: Antiproliferative activity against human MV4-11 cells assessed as inhibition of cell growth incubated for 48 hrs by MTT assay
The test system of assay [24] is MV4-11. As to the kind of experiment: Induction of cell cycle arrest in human MV4-11 cells assessed as accumulation of cells at G2/M phase at 1.25 uM incubated for 24 hrs by propidium iodide staining flow cytometric analysis (reference value: 51.43 %). In kind it is functional.
Assay [25] deals with MV4-11. As to the kind of experiment: Induction of apoptosis in human MV4-11 cells assessed as early apoptotic cells at 2.5 uM incubated for 24 hrs by annexin V-FITC/PI staining based flow cytometric analysis (reference value: 0%). In kind it is functional.
The species named for assay [26] is Homo sapiens. The conditions noted are these: time 30.0 min. The source holds these as a separate data set.
Assay [27] concerns MV4-11. As to the kind of experiment: Induction of apoptosis in human MV4-11 cells assessed as necrotic cells at 5 uM incubated for 24 hrs by annexin V-FITC/PI staining based flow cytometric analysis (reference value: 2.35 %). The assay is classed as functional.
Assay [28] relates to MV4-11. As to the kind of experiment: Induction of cell cycle arrest in human MV4-11 cells assessed as accumulation of cells at G0/G1 phase at 1.25 uM incubated for 24 hrs by propidium iodide staining flow cytometric analysis (reference value: 34.97 %). The assay is classed as functional.
The next assay deals with Jurkat. Put plainly: cells. The conditions noted are these: Homo sapiens, 48 h.
The subject of assay [29] is MV4-11. As to the kind of experiment: Induction of cell cycle arrest in human MV4-11 cells assessed as accumulation of cells at G0/G1 phase at 0.625 uM incubated for 24 hrs by propidium iodide staining flow cytometric analysis (reference value: 34.97 %). The assay is classed as functional.
Assay [30] concerns MV4-11. As to the kind of experiment: Induction of cell cycle arrest in human MV4-11 cells assessed as accumulation of cells at G2/M phase at 2.5 uM incubated for 24 hrs by propidium iodide staining flow cytometric analysis (reference value: 51.43 %). In kind it is functional.
Assay [31] relates to MV4-11. As to the kind of experiment: Induction of cell cycle arrest in human MV4-11 cells assessed as accumulation of cells at G0/G1 phase at 0.3125 uM incubated for 24 hrs by propidium iodide staining flow cytometric analysis (reference value: 34.97 %). The assay is classed as functional.
Assay [32] deals with MV4-11. Put plainly: Antitumor activity against human MV4-11 cells xenografted in BALB/c mouse assessed as tumor growth inhibition relative to control. The assay is classed as functional. (In general: A xenograft is tissue or cells of one species grown in another, often human tumour cells in immunodeficient mice.)
The species entered for assay [33] is Homo sapiens. As to conditions: time 30.0 min. The source holds these as a separate data set.
Assay [34] concerns MV4-11. Put plainly: Induction of apoptosis in human MV4-11 cells assessed as late apoptotic cells at 2.5 uM incubated for 24 hrs by annexin V-FITC/PI staining based flow cytometric analysis (reference value: 0.04 %). In kind it is functional.
Assay [35] relates to MV4-11. Put plainly: Induction of apoptosis in human MV4-11 cells assessed as viable cells at 2.5 uM incubated for 24 hrs by annexin V-FITC/PI staining based flow cytometric analysis (reference value: 97%). In kind it is functional.
The test system of assay [36] is MV4-11. Put plainly: Induction of apoptosis in human MV4-11 cells assessed as early apoptotic cells at 5 uM incubated for 24 hrs by annexin V-FITC/PI staining based flow cytometric analysis (reference value: 0%). In kind it is functional.
Assay [37] concerns MV4-11. Put plainly: Induction of cell cycle arrest in human MV4-11 cells assessed as accumulation of cells at G2/M phase at 0.3125 uM incubated for 24 hrs by propidium iodide staining flow cytometric analysis (reference value: 51.43 %). In kind it is functional.
For assay [38], the system named is MV4-11. As to the kind of experiment: Induction of cell cycle arrest in human MV4-11 cells assessed as accumulation of cells at G2/M phase at 5 uM incubated for 24 hrs by propidium iodide staining flow cytometric analysis (reference value: 51.43 %). In kind it is functional.
For the next assay, the system named is MOLM-13. Put plainly: cells. As to conditions: Homo sapiens, MOLM-13, 48 h.
Assay [39] deals with MV4-11. As to the kind of experiment: Induction of apoptosis in human MV4-11 cells assessed as viable cells at 10 uM incubated for 24 hrs by annexin V-FITC/PI staining based flow cytometric analysis (reference value: 97%). In kind it is functional.
For assay [40], the system named is MV4-11. Put plainly: Induction of cell cycle arrest in human MV4-11 cells assessed as accumulation of cells at S phase at 0.3125 uM incubated for 24 hrs by propidium iodide staining flow cytometric analysis (reference value: 13.08 %). In kind it is functional.

Description for Jurkat: Antiproliferative activity against human Jurkat cells assessed as inhibition of cell growth incubated for 48 hrs by MTT assay
Description for MM1.S: Antiproliferative activity against human MM1.S cells assessed as inhibition of cell growth incubated for 48 hrs by MTT assay
Description for MOLM-13: Antiproliferative activity against human MOLM-13 cells assessed as inhibition of cell growth incubated for 48 hrs by MTT assay

As to `Cc1sc2c(c1C)C(c1ccc(Cl)cc1)=N[C@@H](CC(=O)OC(C)(C)C)c1nnc(C)n1-2`, the Activity with MV4-11 [1] was determined as 11.65%; with MV4-11 [2] it was 5.04%; in the assay with MV4-11 [3], 4.15%; with MV4-11 [4] it was 19.09%; in the assay on MV4-11 [5] it was 80.59%; in the assay with MV4-11 [6] it was 4.68%. Besides, the Activity was found to be 23.24% in the assay on MV4-11 [7]; 65.43% in the assay on MV4-11 [8]; 8.62% in the assay on MV4-11 [9]; 68.49% in the assay with MV4-11 [10]; 0.06% in the assay with MV4-11 [11]; 6.52% with MV4-11 [12]. The Activity was determined as 0.03% in the assay with MV4-11 [13]; 0.03% in the assay with MV4-11 [14]; 6.12% with MV4-11 [16]; 80.78% with MV4-11 [17]; 3.38% in the assay with MV4-11 [18]; 40.75% with MV4-11 [19]. The Activity was found to be 0% in the assay on MV4-11 [20]; 22.85% with MV4-11 [21]; 64.98% in the assay on MV4-11 [22]; 18.1% in the assay on MV4-11 [24]; 7.22% in the assay with MV4-11 [25]; 0% in the assay with MV4-11 [27]. Moreover, the Activity with MV4-11 [28] stood at 62.73%; with MV4-11 [29], 46.96%; with MV4-11 [30], 11%; in the assay on MV4-11 [31], 46.96%; in the assay on MV4-11 [34], 4.03%; in the assay on MV4-11 [35], 88.78%. Besides, the Activity in the assay on MV4-11 [36] amounted to 6.72%; in the assay on MV4-11 [37], 11.65%; in the assay on MV4-11 [38] it was 11.71%; with MV4-11 [39] it was 67.33%; in the assay with MV4-11 [40] it was 40.75%. In addition, the ΔTm in the assay listed under Homo sapiens [15], in the assay listed under Homo sapiens [26] and in the assay listed under Homo sapiens [33] was 0 °C each time. The IC50 in the assay with MM1.S stood at 2.84 µM; in the assay with MV4-11 [23], 1.3 µM; in the assay on Jurkat it was 16.3 µM; in the assay on MOLM-13, 1.73 µM. The TGI with MV4-11 [32] was 52.82%.

In the case of `COc1cc2c(cc1-c1ccc(F)cc1)ncc1nc(C)n([C@@H](C)c3ccccc3)c12`, the IC50 is 9.48 µM with MM1.S, 2.85 µM with MV4-11 [23], more than 20 µM in the assay with Jurkat and 2.49 µM in the assay with MOLM-13.

Turning to `COc1cc2c(cc1-c1c(C)noc1C)ncc1nc(C)n([C@H](C)c3ccccn3)c12`, the IC50 in the assay with MM1.S was 3.55 µM; in the assay with MV4-11 [23], 1.29 µM; in the assay with Jurkat it was 16.1 µM; with MOLM-13, 6.4 µM.

What is called ΔTm is the shift of the melting midpoint relative to a reference. A word on the IC50: it is the midpoint of a concentration-inhibition curve. The term TGI denotes how far tumour growth fell short of that in controls.
